{
  "source": "patent US20180153897A1",
  "about": "“RIBOFLAVIN FOR THE TREATMENT OF ISCHEMIC STROKE AND/OR OTHER GLUTAMATE EXCITOTOXICITY-ASSOCIATED DISEASES” (priority 2015, published 2018)",
  "key": {"blood glutamate [1]": {"test_system": "blood glutamate", "assay": "Blood glutamate lowering in healthy animals", "format": "in vivo, rat", "details": "healthy rats; for percentage of blood glutamate lowering (respect to basal levels): riboflavin 1, 10 and 50 mg/Kg i.v.", "experimental": "Experimental protocols were approved by the local Animal Care Committee according to the European Union (EU) rules (86/609/CEE, 2003/65/CE and 2010/63/EU). Male Sprague-Dawley rats (Harlan Laboratories, Barcelona, Spain) with an average weight of 350 g were used. Rats were watered and fed ad libitum. The dose-response effect of riboflavin on blood glutamate lowering was determined in healthy animals. Three (3) doses of riboflavin were tested (i.v.), 1, 10 and 50 mg/Kg (weight of animal). As control group was used animals treated with saline (0.9% of NaCl, pH adjusted to 7.4), and as positive control group, animals treated with oxaloacetate 35 mg/Kg. […] A total of 6 animals per group were included in this study. […] With this purpose, dose of 35mg/Kg (average weight of animals: 350 g) of oxaloacetate (Ref 171263, Sigma) was prepared in a saline solution (0.9% of NaCl, pH adjusted to 7.4) at a final concentration of 12.25 mg/mL. Dose of 15 mg/Kg of oxaloacetate was prepared in saline solution (0.9% of NaCl, pH adjusted to 7.4) at a final concentration of 5.25 mg/mL. Dose of 1 mg/Kg of riboflavin (Ref. 4500, Sigma) initially dissolved in a minimal amount of dimethyl sulfoxide (DMSO) and then dissolved in a saline solution (0.9% of NaCl, pH adjusted to 7.4) at a final concentration of 0.35 mg/mL. […] Serum samples were collected in test tubes, centrifuged at 3000 r.p.m. for 7 min, serum was removed and immediately frozen and stored at −80 ° C. Serum glutamate concentration was determined by means of Glutamate Assay Kit (Abnova, Taipei City, Taiwan) following the manufacturer's technical specifications."}, "recombinant human GOT": {"target": "T1, recombinant human GOT (Homo sapiens, UniProt P17174)", "T1 construct": "purchased Abcam ab99147", "T1 sequence (P17174 whole entry)": "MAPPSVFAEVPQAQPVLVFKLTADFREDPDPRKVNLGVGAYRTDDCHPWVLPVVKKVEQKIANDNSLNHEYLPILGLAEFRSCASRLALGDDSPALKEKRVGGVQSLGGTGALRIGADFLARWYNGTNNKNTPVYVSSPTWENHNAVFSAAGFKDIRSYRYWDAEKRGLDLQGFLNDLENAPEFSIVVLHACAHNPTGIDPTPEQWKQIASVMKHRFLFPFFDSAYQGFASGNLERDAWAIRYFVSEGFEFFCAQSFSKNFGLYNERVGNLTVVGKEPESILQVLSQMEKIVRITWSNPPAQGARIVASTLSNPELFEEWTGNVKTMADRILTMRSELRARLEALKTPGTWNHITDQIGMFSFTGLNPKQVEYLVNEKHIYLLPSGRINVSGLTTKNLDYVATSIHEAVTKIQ", "assay": "GOT activity assay (inhibition of glutamate formation), photometric kit", "format": "biochemical", "details": "for Maximum of inhibition of glutamate formation in confirmatory assay (%): confirmatory dose-response assay"}, "[2]": {"target": "T2, succinate dehydrogenase (SDH) (Homo sapiens, UniProt P31040)", "T2 construct": "endogenous in cells; host or cells: HepG2 (ATCC HB-8065); complex captured with Abcam Complex II Enzyme Activity Microplate Assay ab109908", "T2 sequence (P31040 43-664)": "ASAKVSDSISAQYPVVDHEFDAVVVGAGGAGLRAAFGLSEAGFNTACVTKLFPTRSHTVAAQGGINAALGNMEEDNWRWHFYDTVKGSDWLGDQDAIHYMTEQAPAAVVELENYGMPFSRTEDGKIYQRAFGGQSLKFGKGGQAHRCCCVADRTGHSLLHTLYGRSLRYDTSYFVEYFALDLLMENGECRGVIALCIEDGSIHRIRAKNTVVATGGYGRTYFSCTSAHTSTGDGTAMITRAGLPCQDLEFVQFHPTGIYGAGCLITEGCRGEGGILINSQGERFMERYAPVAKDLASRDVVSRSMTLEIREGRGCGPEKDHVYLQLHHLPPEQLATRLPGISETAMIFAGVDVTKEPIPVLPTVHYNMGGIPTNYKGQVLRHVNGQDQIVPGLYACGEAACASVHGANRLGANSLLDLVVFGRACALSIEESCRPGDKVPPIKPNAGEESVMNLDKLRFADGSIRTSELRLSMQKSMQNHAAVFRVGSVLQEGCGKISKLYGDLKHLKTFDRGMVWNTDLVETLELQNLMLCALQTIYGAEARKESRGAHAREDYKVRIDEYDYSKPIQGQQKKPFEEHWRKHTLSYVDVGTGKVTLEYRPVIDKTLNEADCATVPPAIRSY", "T2 sequence (P21912 29-280 partner)": "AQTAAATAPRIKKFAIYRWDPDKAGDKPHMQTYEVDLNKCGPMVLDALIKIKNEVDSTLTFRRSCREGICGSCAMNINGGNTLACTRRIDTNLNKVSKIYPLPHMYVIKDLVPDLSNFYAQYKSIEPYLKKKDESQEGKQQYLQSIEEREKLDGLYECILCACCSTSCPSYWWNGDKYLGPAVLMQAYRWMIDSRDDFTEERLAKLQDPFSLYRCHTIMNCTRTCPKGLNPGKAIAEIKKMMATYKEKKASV", "T2 sequence (Q99643 30-169 partner)": "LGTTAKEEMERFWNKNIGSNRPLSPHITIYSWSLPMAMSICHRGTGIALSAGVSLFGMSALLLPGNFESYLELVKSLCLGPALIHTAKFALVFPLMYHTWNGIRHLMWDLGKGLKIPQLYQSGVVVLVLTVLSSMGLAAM", "T2 sequence (O14521 57-159 partner)": "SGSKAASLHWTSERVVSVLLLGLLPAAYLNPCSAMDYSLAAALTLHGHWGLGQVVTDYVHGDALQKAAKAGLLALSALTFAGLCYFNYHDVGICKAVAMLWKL", "assay": "Complex II Enzyme Activity Microplate Assay (SDH inhibition)", "format": "biochemical", "details": "dose-response curve, FIG. 1; enzyme extracted from HepG2 cells", "description": "To evaluate possible toxic effects on SDH, a secondary assay was set up, using Complex II Enzyme Activity Microplate Assay (from Abcam, ref. ab109908), based on the detection of 2,6-diclorophenolindophenol (DCPID), blue, which is reduced in contact with Ubiquinol, turning colorless and involving the measurement of a decrease in absorbance at 595 nm. The enzyme was extracted from HepG2 cells (ATCC, ref. HB-8065), following manufacturer's instructions."}, "blood glutamate [3]": {"test_system": "blood glutamate", "assay": "Blood glutamate in ischemic (MCAO) animals", "format": "in vivo, rat", "details": "MCAO rats, 2 hours after administration", "experimental": "Treatments were administered after artery reperfusion (45 min after occlusion). A total of 10 animals per group were included in this study. […] Infarct volume analysis were evaluated during the occlusion (30 min after occlusion), and 24h and 7 days after ischemia induction. Infarct volume determined at 30 min after artery occlusion (analyzed by diffusion weighted imaging, DWI) (Perez-Mato, M., et al., Cell Death Dis., 2014, 5:e992) was determined before treatments administration to confirm that all animals included in the study were submitted to the same ischemic insult. These values were used as basal infarct volume. […] With this purpose, dose of 35mg/Kg (average weight of animals: 350 g) of oxaloacetate (Ref 171263, Sigma) was prepared in a saline solution (0.9% of NaCl, pH adjusted to 7.4) at a final concentration of 12.25 mg/mL. […] Dose of 1 mg/Kg of riboflavin (Ref. 4500, Sigma) initially dissolved in a minimal amount of dimethyl sulfoxide (DMSO) and then dissolved in a saline solution (0.9% of NaCl, pH adjusted to 7.4) at a final concentration of 0.35 mg/mL. […] Serum samples were collected in test tubes, centrifuged at 3000 r.p.m. for 7 min, serum was removed and immediately frozen and stored at −80 ° C. Serum glutamate concentration was determined by means of Glutamate Assay Kit (Abnova, Taipei City, Taiwan) following the manufacturer's technical specifications. […]"}, "MCAO rats": {"test_system": "MCAO rats", "assay": "Infarct volume by MRI in MCAO rats", "format": "in vivo, rat", "details": "riboflavin 1 mg/Kg, 24 h and 7 days after ischemia", "experimental": "Four (4) experimental groups were performed: 1) a control group treated with saline (0.9% of NaCl, pH adjusted to 7.4), 2) a group treated with riboflavin 1 mg/Kg, 3) a group treated with riboflavin 1 mg/Kg in combination with dose of oxaloacetate a non-effective (15 mg/Kg) and 4) a positive control group treated with oxaloacetate 35 mg/Kg. […] Treatments were administered after artery reperfusion (45 min after occlusion). A total of 10 animals per group were included in this study. […] Infarct volume analysis were evaluated during the occlusion (30 min after occlusion), and 24h and 7 days after ischemia induction. Infarct volume determined at 30 min after artery occlusion (analyzed by diffusion weighted imaging, DWI) (Perez-Mato, M., et al., Cell Death Dis., 2014, 5:e992) was determined before treatments administration to confirm that all animals included in the study were submitted to the same ischemic insult. These values were used as basal infarct volume. […] Infarct volume, also referred herein as infarct size, was assessed by means of magnetic resonance imaging (MRI). […] Infarct volumes were determined from (ADC maps) and T2-weighted images by manually selecting areas of reduced ADC values or hyperintense T2 signal by a researcher blinded to the animal protocols."}, "[4]": {"details": "dose-response curve, FIG. 1, read-out: IC50 (GOT)"}, "[5]": {"details": "inhibition of glutamate formation, confirmatory assay, read-out: IC50(μM) in confirmatory assay"}},
  "note": "Counter-ions that a name gives are not always drawn. Like-named read-outs stand apart in the source and are kept apart here.",
  "data": [
    {"compound": "O=C(O)CC(=O)C(=O)O", "note": "[oxaloacetate, 3-carboxy-3-oxopropanoate]", "values": [
      {"measurement": "percentage of glutamate levels reduction", "setting": "blood glutamate [1]; oxaloacetate 35 mg/Kg i.v., 2, 4 and 6 hours", "value": "≤ 40", "unit": "%"},
      {"measurement": "reduction of blood glutamate levels", "setting": "blood glutamate [1]; oxaloacetate 35 mg/Kg i.v., 30 min", "value": "no effect"},
      {"measurement": "IC50", "setting": "recombinant human GOT; [4]", "value": 130, "unit": "µM"},
      {"measurement": "IC50", "setting": "[2]", "value": 1.8, "unit": "µM"},
      {"measurement": "reduction of blood glutamate levels respect to basal levels", "setting": "blood glutamate [3]; oxaloacetate 35 mg/Kg at reperfusion", "value": "about 30%"}
    ]},
    {"compound": "Doxycycline hyclate [CBG000814]", "values": [
      {"measurement": "Maximum of inhibition of glutamate formation in confirmatory assay (%)", "setting": "recombinant human GOT", "value": 32, "unit": "%"},
      {"measurement": "IC50", "setting": "recombinant human GOT; [5]", "value": 15.1, "unit": "µM"}
    ]},
    {"compound": "Cc1cc2nc3c(=O)[nH]c(=O)nc-3n(C[C@H](O)[C@H](O)[C@H](O)CO)c2cc1C", "note": "[CBG000592, 7,8-dimethyl-10-[(2S,3S,4R)-2,3,4,5-tetrahydroxypentyl]benzo[g]pteridine-2,4-dione]", "values": [
      {"measurement": "percentage of blood glutamate lowering (respect to basal levels)", "setting": "blood glutamate [1]; 30 min", "value": "about 25%"},
      {"measurement": "percentage of blood glutamate lowering (respect to basal levels)", "setting": "blood glutamate [1]; 2 h", "value": "about 50%"},
      {"measurement": "percentage of blood glutamate lowering (respect to basal levels)", "setting": "blood glutamate [1]; 4 h", "value": 60, "unit": "%"},
      {"measurement": "percentage of blood glutamate lowering (respect to basal levels)", "setting": "blood glutamate [1]; 6 h", "value": 50, "unit": "%"},
      {"measurement": "Maximum of inhibition of glutamate formation in confirmatory assay (%)", "setting": "recombinant human GOT", "value": 63, "unit": "%"},
      {"measurement": "IC50", "setting": "recombinant human GOT; [4]", "value": 1.9, "unit": "µM"},
      {"measurement": "IC50", "setting": "recombinant human GOT; [5]", "value": 1.96, "unit": "µM"},
      {"measurement": "IC50", "setting": "[2]", "value": 10.8, "unit": "µM"},
      {"measurement": "reduction of blood glutamate levels respect to basal levels", "setting": "blood glutamate [3]; riboflavin 1 mg/Kg at reperfusion", "value": "about 30%"},
      {"measurement": "lesion size (infarct volume) versus control", "setting": "MCAO rats", "value": "significant (p<0.001) decrease of lesion size"}
    ]},
    {"compound": "CN1CCc2cccc3c2[C@H]1Cc1ccc(O)c(O)c1-3.CN1CCc2cccc3c2[C@H]1Cc1ccc(O)c(O)c1-3.Cl.Cl.O", "note": "[CBG000083, R-(−)-Apomorphine hydrochloride hemihydrate]", "values": [
      {"measurement": "Maximum of inhibition of glutamate formation in confirmatory assay (%)", "setting": "recombinant human GOT", "value": 56.5, "unit": "%"},
      {"measurement": "IC50", "setting": "recombinant human GOT; [5]", "value": 58.1, "unit": "µM"}
    ]},
    {"compound": "CC(CCc1ccc(O)cc1)NCCc1ccc(O)c(O)c1", "note": "(centres unmarked) [CBG000332, Dobutamine hydrochloride]", "values": [
      {"measurement": "Maximum of inhibition of glutamate formation in confirmatory assay (%)", "setting": "recombinant human GOT", "value": 35.5, "unit": "%"},
      {"measurement": "IC50", "setting": "recombinant human GOT; [5]", "value": 81.7, "unit": "µM"}
    ]},
    {"compound": "(−)-3-(3,4-Dihydroxyphenyl)-2-methyl-L-alanine sesquihydrate [CBG000361]", "values": [
      {"measurement": "Maximum of inhibition of glutamate formation in confirmatory assay (%)", "setting": "recombinant human GOT", "value": 38.5, "unit": "%"},
      {"measurement": "IC50", "setting": "recombinant human GOT; [5]", "value": 117, "unit": "µM"}
    ]}
  ]
}
